Values of other authors in patent publication US20210155895A1, “Pluripotent Stem Cell-Derived 3D Retinal Tissue and Uses Thereof” (LINEAGE CELL THERAPEUTICS, INC., priority 2016, published 2021).
Each block holds one compound with its values, some of them ahead of it.

Experiments:
[1] = test system: histone H3; settings: Koriyama et al. 2014
[2] = test system: PR (photoreceptors); settings: zaprinast 100 μM
[3] = test system: PR (photoreceptor) cells

Structure (SMILES): CCCC(CCC)C(=O)O [valproic acid]
effect on histone H3 acetylation [1]: induces histone H3 acetylation

effect on intracellular cGMP [2]: raises intracellular cGMP
Structure (SMILES): CCCOc1ccccc1-c1nc2nn[nH]c2c(=O)[nH]1 [zaprinast]
PR degeneration [2]: induces PR degeneration at a level comparable to that observed in the mouse rd1 model

Structure (SMILES): CN(N=O)C(N)=O [MNU, N-methyl, N-nitrosourea]
time to PR cell death after application [3]: ≤ 7 days
PR cell death ([3]; involving the caspase pathway): selective and progressive PR cell death
